According to the supplement of paper PMC8671470:

How the values were obtained:
Settings in all cases: 72 h
[1] = tested on: HL-60; assay: cell viability (% survival relative to DMSO control, bortezomib = 0%); higher = less cytotoxic
Method in brief: (§1)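 Fifteen myeloid leukaemia cell lines were exposed to compounds at 1, 10, 100, 1000 or 10000 nM in 384-well plates for 72 h at 37 °C and 5% CO2. Viability was read by CellTiter-Glo luminescence and normalised, with vehicle as 100% and a 10 µM positive control as 0%. Values are percent survival averaged over duplicates.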

[2] = tested on: MV4-11; assay: as above
Method in brief: as §1

[3] = tested on: BV-173; assay: as above
Method in brief: as §1

[4] = tested on: KCL-22; assay: as above
Method in brief: as §1

[5] = tested on: MOLM-13; assay: as above
Method in brief: as §1

[6] = tested on: K-562; assay: as above
Method in brief: as §1

[7] = tested on: Mono-Mac-6; assay: as above
Method in brief: as §1

[8] = tested on: LAMA-84; assay: as above
Method in brief: as §1

[9] = tested on: KU-812; assay: as above
Method in brief: as §1

[10] = tested on: SHI-1; assay: as above
Method in brief: as §1

[11] = tested on: THP-1; assay: as above
Method in brief: as §1

[12] = tested on: ML-2; assay: as above
Method in brief: as §1

[13] = tested on: HEL; assay: as above
Method in brief: as §1

[14] = tested on: KG-1; assay: as above
Method in brief: as §1

[15] = tested on: NOMO-1; assay: as above
Method in brief: as §1

[16] = tested on: HL-60; assay: cell viability (% survival relative to DMSO control); higher = less cytotoxic
Method in brief: (§2)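 Four-parameter log-logistic fits in drc and PharmacoGx supplied area under the curve where it is given. Underlying viability came from CellTiter-Glo, normalised to DMSO and proteasome-inhibitor wells, with the proteasome inhibitor at 10 μM. HL-60 cells in RPMI 1640 plus 10% FBS had been rescreened against the full library at five tenfold concentrations of 1–10,000 nM, in duplicate on 384-well plates, with DMSO or 100 nM of one of three metabolic inhibitors, for 72 h at 37 °C, 5% CO2.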

[17] = tested on: NOMO-1
Method in brief: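 Fifteen myeloid leukaemia cell lines were seeded in RPMI 1640 at densities titrated to the linear growth range and placed in 384-well plates with acoustically pre-printed compounds at five tenfold doses from 1 to 10,000 nM, in duplicate. After 72 h at 37 °C with 5% CO2, luminescent ATP viability was normalised to vehicle and to a positive control at 10 µM, and curves were fitted with a four-parameter log-logistic model. The IC50 was obtained from these fits.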

[18] = tested on: HL-60; assay: area under dose-response curve (viability, 1 nM-10 uM) (fraction (0-1)); higher = more sensitive
Method in brief: as §2

CCCCCCCCCCCCCCOc1ccc(C(=O)O)o1 [TOFA]
Settings	area under dose-response curve, co-treatment: AZD3965 100 nM	area under dose-response curve, co-treatment: DMSO vehicle	area under dose-response curve, co-treatment: GSK2194069 100 nM	area under dose-response curve, co-treatment: pictilisib 100 nM	cell viability, 1 nM [%]	cell viability, 10 nM [%]	cell viability, 100 nM [%]	cell viability, 1000 nM [%]	cell viability, 10000 nM [%]
[1]	–	–	–	–	75.1	83.8	108	109	85.4
[2]	–	–	–	–	87.6	87.9	104	98.4	96.2
[3]	–	–	–	–	110	104	101	90.1	103
[4]	–	–	–	–	94.2	90.6	108	107	40.4
[5]	–	–	–	–	102	91.7	98.8	82.7	87
[6]	–	–	–	–	100	93.4	92	108	114
[7]	–	–	–	–	113	94.5	99.8	94.2	105
[8]	–	–	–	–	106	105	102	103	90.1
[9]	–	–	–	–	109	95	95.6	81.5	82.5
[10]	–	–	–	–	113	85.6	110	98.9	89.9
[11]	–	–	–	–	98.2	101	97.9	86.4	88.8
[12]	–	–	–	–	101	92.8	110	101	108
[13]	–	–	–	–	108	91.8	103	103	83.8
[14]	–	–	–	–	95.8	103	116	97.5	93.2
[15]	–	–	–	–	105	101	99.3	99	109
[18]	< 0.0301	< 0.0301	< 0.0301	0.114	–	–	–	–	–

cell viability [%], [16]
Settings	0.001 µM	0.01 µM	0.1 µM	1 µM	10 µM
co-treatment: AZD3965 100 nM	96.4	101	104	97.5	100
co-treatment: DMSO vehicle	98.8	102	98.8	98.5	97.592
co-treatment: GSK2194069 100 nM	81.3	96.3	84.6	95.9	94.01
co-treatment: pictilisib 100 nM	80.5	100	94.5	107	2.06

Settings	IC50 (cell viability) [nM]
[17]	> 10000

Nc1nc(O)c2c(CCc3ccc(C(=O)N[C@@H](CCC(=O)O)C(=O)O)cc3)c[nH]c2n1 [Pemetrexed]
Settings	area under dose-response curve, co-treatment: AZD3965 100 nM	area under dose-response curve, co-treatment: DMSO vehicle	area under dose-response curve, co-treatment: GSK2194069 100 nM	area under dose-response curve, co-treatment: pictilisib 100 nM	cell viability, 1 nM [%]	cell viability, 10 nM [%]	cell viability, 100 nM [%]	cell viability, 1000 nM [%]	cell viability, 10000 nM [%]
[1]	–	–	–	–	110	99.6	113	31.5	9.36
[2]	–	–	–	–	98.7	94.2	106	13.4	5.7
[3]	–	–	–	–	89.2	91.9	104	4.73	1.8
[4]	–	–	–	–	98.5	102	78.4	36.9	24.3
[5]	–	–	–	–	95.6	101	93.5	4.73	1.7
[6]	–	–	–	–	95.8	104	92.3	68.4	27.8
[7]	–	–	–	–	91.2	92.2	87.3	23.5	20.3
[8]	–	–	–	–	99	99.3	40	30.7	26
[9]	–	–	–	–	98.9	102	71.1	38.6	39.3
[10]	–	–	–	–	99.2	102	106	68	43.4
[11]	–	–	–	–	85	96	101	61.7	56.8
[12]	–	–	–	–	102	101	96.3	14	10.5
[13]	–	–	–	–	104	90.7	57.8	11.6	7.51
[14]	–	–	–	–	92	93.5	91.6	108	102
[15]	–	–	–	–	91	94.8	82.8	51.9	50.2
[18]	0.24	0.233	0.236	0.223	–	–	–	–	–

cell viability [%], [16]
Settings	0.001 µM	0.01 µM	0.1 µM	1 µM	10 µM
co-treatment: AZD3965 100 nM	91.8	98.6	107	41.5	28
co-treatment: DMSO vehicle	102	100.6	112	43.8	36.8
co-treatment: GSK2194069 100 nM	71.6	95.7	122	40.1	32.2
co-treatment: pictilisib 100 nM	74.2	100.6	121	47.2	32.2

Settings	IC50 (cell viability) [nM]
[17]	1370
